Test results from US8981053B2, “Molecules specifically binding pancreatic beta cells biomarkers” (Universite de Mons, priority 2011, dated 2015).
Where no end group is shown, it is not given here.

Experiments:
[1] = biological target: T1, FXYD2-gamma-a regulatory subunit expressed by CAPAN-2 cells (Homo sapiens, UniProt P54710); experiment: Immunocytochemistry on CAPAN2 and PANC1 cells; assay type: cell-based; conditions: CAPAN2 cells versus PANC1 cells
T1 construct: the FXYD2-gamma-a regulatory subunit expressed by CAPAN-2 cells; endogenous in cells; host or cells: CAPAN-2 cells (PANC1 cells as comparison)
T1 sequence (P54710 whole entry): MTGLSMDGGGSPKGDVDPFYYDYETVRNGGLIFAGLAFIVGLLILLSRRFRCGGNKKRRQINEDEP
Method: (§1) The specificity of P88, P89, P90 and a polyclonal antibody against the N-terminal sequence of FXYD2-gamma-a protein to the FXYD2-gamma-a regulatory subunit expressed by CAPAN-2 cells was checked by immunocytochemistry and immunofluorescence tests.
Immunocytochemistry tests were performed using the biotinylated peptides. An anti-biotine antibody was used and was recognized by a secondary antibody coupled to the peroxidase. The polyclonal antibody against the N-terminal sequence of FXYD2-gamma-a protein to the FXYD2-gamma-a was detected using a secondary biotinylated antibody that fixes a complex containing streptavidin, biotin and peroxidase. The latter gives a brown color in the presence of 3,3′-diaminobenzidine (DAB).

[2] = biological target: T1, FXYD2-gamma-a regulatory subunit expressed by CAPAN-2 cells; experiment: Immunofluorescence on CAPAN2 and PANC1 cells with ImageJ semi-quantitative analysis (RRFL); assay type: cell-based
Source text: as §1
Each secondary antibody described above was coupled to a fluorophore such as fluorescein which gives a green color at a certain wavelength. DAPI (4′,6-diamidino-2-phenylindole) was also used in order to stain the cell nuclei in blue. This allowed us to compare the localization of the blue and the green coloration. […] Therefore, P88 interacts specifically with CAPAN2 cells and is thus specific to the FXYD2-gamma-a biomarker.
The images obtained by immunofluorescence test were analyzed using ImageJ software in order to semi-quantitatively evaluate the fluorescent labeling. The following equation was used to calculate the relative rate of fluorescent labeling (RRFL): RRFL=(SIsample/Ncells)/(SIblanc/Ncells) Wherein SI is the signal intensity, N is the number of cells and blanc is the negative control sample.
The percentage of RRFL obtained when P88 was used at two different concentrations (5 μM and 10 μM) was determined compared to the RRFL obtained when the polyclonal antibody against the N-terminal sequence of FXYD2-gamma-a was used (FIG. 3 B). The ratio between the RRFL measured in CAPAN2 cells and the RRFL measured in PANC1 cells was also determined (FIG. 3 C). […] The ratio CAPAN2/PANC1 confirmed the labeling specificity of P88 compared to the used polyclonal antibody.

FXYD2-gamma-a subunit = FXYD2-gamma-a subunit (Homo sapiens, UniProt P54710); experiment: Dissociation constant (Kd) determination of phage display clone and synthetized peptides; conditions: binding to FXYD2-gamma-a subunit
Sequence of FXYD2-gamma-a subunit (P54710 whole entry, the tested form may be a part): as the sequence (P54710 whole entry) above
Source text: Commercially available peptide libraries were screened and peptides binding the FXYD2-gamma-a subunit were retained for further analysis. The FXYD2-gamma-a is a regulating subunit of the Na—K-ATPase that contains 66 amino acids, from which 11 are specific to human beta-cells (Flamez D et al. DOI 10.1007/s00125-010-1714-z). Commercially available linear heptapeptide libraries were screened via M 13 phage display methodology. After 4 screening rounds, 42 clones were selected for further characterization: sequencing and dissociation constant (Kd) determination. […] The latter were synthetized either separately (called P89 and P90) or fused via a short sequence of the pill protein (called P88). All three synthetized peptides were further tested. […]

[3] = system: human pancreatic beta cells; experiment: Immunofluorescence co-localization on human pancreatic histological sections; assay type: cell-based
Method: (§2) A co-localization of peptide P88, insulin and glucagon was performed on human pancreatic histological sections using immunohistochemistry and immunofluorescence tests. Insulin is a hormone produced by the beta cells of Langerhans islets while glucagon is produced by the alpha cells of the same islets.
Immunofluorescence tests were performed on human pancreatic histological sections such as P88 was detected together with insulin or glucagon. In another test, insulin was detected together with the polyclonal antibody against the N-terminal sequence of FXYD2-gamma-a. Insulin (specific of beta cells) was detected with a primary anti-insulin antibody which was detected using a secondary antibody coupled to Texas Red. Glucagon was detected with a primary anti-glucagon antibody which was also detected using a secondary antibody coupled to Texas Red. The latter gives red color to the antigenic sites. Biotinylated P88 was detected using a primary antibody anti-biotin and a secondary antibody coupled to fluorescein. The polyclonal antibody against the N-terminal sequence of FXYD2-gamma-a was also detected using a secondary antibody coupled to fluorescein. Antigenic sites marked by fluorescein are visualized in green color. DAPI was also used in order to stain the cells nuclei in blue. Pictures obtained with each staining (red, green and blue) were superimposed.

[4] = system: human pancreatic Langerhans islets; experiment: Immunohistochemistry on human pancreatic histological sections; assay type: cell-based
Method: as §2
The marking is the same as the one obtained when the antibody anti-insulin was used (FIG. 4).
In other immunohistochemistry tests, the anti-FXYD2-gamma-a polyclonal antibody was used. […] Therefore, P88 is highly specific to the pancreatic beta cells FXYD2-gamma-a biomarker.

CAPAN2 cells [5] = experiment: MRI of CAPAN2 cells labeled with contrast agents; assay type: cell-based, human; conditions: for MRI labeling of CAPAN2 cells: 2×10^6 to 0.1×10^6 cells per 100 μl; for transverse relaxation rates of labeled CAPAN2 cells compared to USPIO-PEG: independent from the concentration of CAPAN2 cells
Method: (§3) CAPAN2 cells were labeled with USPIO nanoparticles coupled to P88 or with carboxy silane coated iron oxide nanoparticles coupled to P88. USPIO-polyethylene glycol (PEG) were used as negative contrast agent. Labeled cells were visualized by MRI and the concentration of contrast agents bound to the cells was determined by iron dosage.
CAPAN2 cells were used with different concentrations ranging from 2×10^6 cell per 100 μl to 0.1×10^6 cells per 100 μl corresponding respectively to the beta cell concentration in healthy pancreas and in a pancreas with diabetes. […] The labeling was also clearly observed with the lowest CAPAN2 cell concentration.

CAPAN2 cells [6] = experiment: Iron dosage of CAPAN2 cells labeled with contrast agents; assay type: cell-based, human; conditions: contrast agent 1 mM, 2 mM and 3 mM
Method: as §3
This confirms the specificity of P88 to the pancreatic beta cells biomarker FXYD2-gamma-a and the efficacy of using the P88 coupled to a contrast agent in MRI.

[7] = system: beta cells of Langerhans islets; experiment: Co-localization of contrast agent labeled Langerhans islets with insulin (anti-PEG antibody); assay type: cell-based, human; conditions: fluorescein, insulin Texas red
Method: Co-localization tests were performed where antibodies anti-PEG were added to the Langrehans islets labeled with USPIO-P88 nanoparticles, the Langrehans islets labeled with carboxy silane coated iron oxide nanoparticles coupled to the peptide P88 and to the Langrehans islets labeled with USPIO-PEG. A secondary antibody that recognizes the anti-PEG antibody and coupled to the fluorescein was also used which created a green fluorescence.
Insulin was labeled with primary anti-insulin antibody and a secondary antibody coupled to Texas red which created a red fluorescence.

human Langerhans islets = experiment: MRI of human Langerhans islets labeled with contrast agents; assay type: cell-based; conditions: for transverse relaxation rates of labeled human Langerhans islets compared to USPIO-PEG: independent from concentration and purity of islets
Method: Contrast agents USPIO and carboxy silane coated iron oxide nanoparticles coupled to the peptide P88 were tested for their interaction with the human Langerhans islets and compared to the use of USPIO-PEG contrast agent.

[8] = biological target: FXYD2-gamma-a regulatory subunit expressed by CAPAN-2 cells and human pancreatic beta cells (human) (UniProt P54710); experiment: immunofluorescence on CAPAN2 cells, ImageJ semi-quantitative analysis, P88 at 10 µM
Sequence of FXYD2-gamma-a regulatory subunit expressed by CAPAN-2 cells and human pancreatic beta cells (human) (P54710 whole entry): as above

[9] = biological target: FXYD2-gamma-a regulatory subunit expressed by CAPAN-2 cells and human pancreatic beta cells (human) (UniProt P54710); experiment: immunofluorescence on CAPAN2 cells, ImageJ semi-quantitative analysis, P88 at 5 µM
[10] = biological target: FXYD2-gamma-a subunit (target of the phage display screening and Kd determination) (human) (UniProt P54710); experiment: phage clone characterisation after M13 phage display screening; method not stated
Sequence of FXYD2-gamma-a subunit (target of the phage display screening and Kd determination) (human) (P54710 whole entry): as above

[11] = biological target: FXYD2-gamma-a subunit (target of the phage display screening and Kd determination) (human) (UniProt P54710); experiment: synthetic peptide; method not stated

LPLSRHY [P89, LPLSRHY]
specificity of interaction (brown DAB coloration) [1]: less specific compared to P88

LPLSRHYGGGSVPFYSHSNTHHTSM [P88]
RRFL higher than the RRFL produced by the anti-FXYD2-gamma-a polyclonal antibody ([2]; CAPAN2 cells, 5 μM): 791%
RRFL higher than the RRFL produced by the anti-FXYD2-gamma-a polyclonal antibody ([2]; CAPAN2 cells, 10 μM): 945%
green fluorescence pattern in CAPAN 2 cells ([2]; CAPAN2 cells, DAPI nuclear stain): correspondent to the blue fluorescent pattern of DAPI
green fluorescence in PANC1 cells ([2]; PANC1 cells): few green fluorescent spots
Kd (FXYD2-gamma-a subunit): 1890 nM
co-localization with glucagon (anti-glucagon antibody) [3]: did not co-localize
co-localization with insulin (anti-insulin antibody) [3]: perfect co-localization
marking of pancreatic Langerhans islets [4]: high specific marking
specificity of interaction (brown DAB coloration) [1]: more localized in the CAPAN2 cells

NTHHTSM [P90]
dissociation constant (Kd) (FXYD2-gamma-a subunit): could not be determined
specificity of interaction (brown DAB coloration) [1]: less specific compared to P88

USPIO-P88: USPIO nanoparticles coupled to P88, MRI contrast agent (LPLSRHYGGGSVPFYSHSNTHHTSM; also: coupled to USPIO nanoparticles, site not given here)
MRI labeling of CAPAN2 cells (CAPAN2 cells [5]): clear labeling
transverse relaxation rates of labeled CAPAN2 cells compared to USPIO-PEG (CAPAN2 cells [5]): higher
amount of iron captured by the CAPAN2 cells compared to USPIO-PEG (CAPAN2 cells [6]): always higher
co-localization of labeled Langerhans islets with the red fluorescence of insulin [7]: perfectly co-localized
MRI labeling of human Langerhans islets compared to USPIO-PEG (human Langerhans islets; also at low concentration and in non-pure islet samples): clear difference
transverse relaxation rates of labeled human Langerhans islets compared to USPIO-PEG (human Langerhans islets): higher

silane coated iron oxide nanoparticles-P88: carboxy silane coated iron oxide nanoparticles coupled to P88 (LPLSRHYGGGSVPFYSHSNTHHTSM; also: coupled to carboxy silane coated iron oxide nanoparticles, site not given here)
MRI labeling of CAPAN2 cells (CAPAN2 cells [5]): clear labeling
transverse relaxation rates of labeled CAPAN2 cells compared to USPIO-PEG (CAPAN2 cells [5]): higher
amount of iron captured by the CAPAN2 cells compared to USPIO-PEG (CAPAN2 cells [6]): always higher
co-localization of labeled Langerhans islets with the red fluorescence of insulin [7]: perfectly co-localized
transverse relaxation rates of labeled human Langerhans islets compared to USPIO-PEG (human Langerhans islets): higher

LPLSRHYGGGSVPFYSHSNTHHTSM (also: biotinylated in ICC/IHC/IF tests, site not given here) [P88]
relative rate of fluorescent labeling (RRFL) in CAPAN2 cells against the anti-FXYD2-gamma-a polyclonal antibody [8]: 945 % higher
relative rate of fluorescent labeling (RRFL) in CAPAN2 cells against the anti-FXYD2-gamma-a polyclonal antibody [9]: 791 % higher

B1: selected M13 phage clone carrying 2 peptides (peptide)
peptide 1: LPLSRHY
peptide 2: NTHHTSM
Kd [10]: 9.3 nM

LPLSRHY (also: biotinylated in ICC tests, site not given here) [P89]
Kd [11]: 109000 nM
